Measured values reported in patent US7727986B2, “Pesticide pyrimidinyloxy substituted phenylamidine derivatives” (Bayer CropScience AG, priority 2005, dated 2010).

Experiment: logP by HPLC on reversed-phase column (C 18), EEC Directive 79/831 Annex V.A8
Type: physicochemical
Settings: HPLC, 0.1% aqueous formic acid and acetonitrile, 40° C.; pH 2.3
Method: Temperature: 40° C.; Mobile phases: 0.1% aqueous formic acid and acetonitrile; linear gradient from 10% acetonitrile to 90% acetonitrile.

Structure (SMILES) | logPa
CCCN(C)C=Nc1cc(C)c(Oc2cc(N(C)CC)ncn2)cc1C [Compound 42] | 1.6
CCN(C)C=Nc1cc(C)c(Oc2cc(C)nc(Cl)n2)cc1C [Compound 3, N′-{4-[(2-chloro-6-methylpyrimidin-4-yl)oxy]-2,5-dimethylphenyl}-N-ethyl-N-methylimido-formamide] | 1.45
Cc1cc(Oc2ccnc(Oc3ccc(Cl)cc3)n2)c(C)cc1N=CN1CCCCC1 [Compound 82] | 2.18
Cc1cc(Oc2cc(C)c(N=CN3CCCCC3)cc2C)nc(Oc2ccccc2)n1 [Compound 75] | 2.09
CCN(C)C=Nc1cc(C)c(Oc2nc(Cl)ncc2Cl)cc1C [Compound 64] | 1.67
CCN(C)C=Nc1cc(C)c(Oc2ncnc(Oc3cccc(Cl)c3C)c2C)cc1C [Compound 8] | 2.6
Cc1cc(Oc2ncc(Cl)cn2)c(C)cc1N=CN(C)C(C)C [Compound 97] | 1.41
CCCN(C)C=Nc1cc(C)c(Oc2ccnc(Cl)n2)cc1C [Compound 24] | 1.44
CCCN(C)c1cc(Oc2cc(C)c(N=CN(C)C(C)C)cc2C)ncn1 [Compound 53] | 1.77
CCCN(C)C=Nc1cc(C)c(Oc2ccnc(N3CCOCC3)n2)cc1C [Compound 20] | 3.13
CCN(C)c1nc(Oc2cc(C)c(N=CN(C)C(C)C)cc2C)ncc1Cl [Compound 99] | 1.98
Cc1cc(Oc2ccnc(N3CCCCC3)n2)c(C)cc1N=CN(C)C(C)C [Compound 34] | 1.56
CCCN(C)C=Nc1cc(C)c(Oc2cc(Cl)ncn2)cc1C [Compound 16] | 1.56
CCN(C)C=Nc1cc(C)c(Oc2ccnc(Oc3ccc(C(F)(F)F)cc3)n2)cc1C [Compound 87] | 2.37
CCCN(C)C=Nc1cc(C)c(Oc2ccnc(Oc3cccc(Cl)c3)n2)cc1C [Compound 67] | 2.14
CCN(C)C=Nc1cc(C)c(Oc2ccnc(N3CCOCC3)n2)cc1C [Compound 19] | 1.3
Cc1cc(Oc2ccnc(Nc3cccc(Cl)c3)n2)c(C)cc1N=CN(C)C(C)C [Compound 29] | 2.04
CCCN(C)C=Nc1cc(C)c(Oc2ccnc(N(C)C)n2)cc1C [Compound 38] | 0.89
CCN(C)C=Nc1cc(C)c(Oc2nccc(Oc3cccc(Cl)c3)n2)cc1C [Compound 103] | 2.13
CCN(C)C=Nc1cc(C)c(Oc2cc(N(C)CC)ncn2)cc1C [Compound 43] | 1.46
CCN(C)C=Nc1cc(C)c(Oc2ccnc(Oc3ccccc3)n2)cc1C [Compound 72] | 1.96
CCN(C)C=Nc1cc(C)c(Oc2ccnc(Oc3ccc(F)c(F)c3)n2)cc1C [Compound 70] | 1.93
CCN(C)C=Nc1cc(C)c(Oc2ccnc(Nc3cccc(Cl)c3)n2)cc1C [Compound 30] | 1.94
CCN(C)C=Nc1cc(C)c(Oc2ccnc(N3CCCCC3)n2)cc1C [Compound 21] | 1.4

Structure (SMILES) | logPa
CCCN(C)C=Nc1cc(C)c(Oc2ncc(Cl)c(N(C)CC)n2)cc1C [Compound 100] | 1.95
CCCN(C)C=Nc1cc(C)c(Oc2cc(C)nc(Cl)n2)cc1C [Compound 32] | 1.62
Cc1cc(Oc2ccnc(Cl)n2)c(C)cc1N=CN(C)C(C)C [Compound 25] | 1.4
CCN(C)C=Nc1cc(C)c(Oc2nccc(Oc3ccccc3)n2)cc1C [Compound 102] | 1.82
CCN(C)C=Nc1cc(C)c(Oc2cc(OC)ncn2)cc1C [Compound 39] | 1.32
CCCN(C)C=Nc1cc(C)c(Oc2nc(Cl)ncc2C)cc1C [Compound 28] | 1.68
CCc1ncnc(Oc2cc(C)c(N=CN3CCCCC3)cc2C)c1Cl [Compound 85] | 1.98
CCN(C)c1cc(Oc2cc(C)c(N=CN(C)C(C)C)cc2C)ncn1 [Compound 45] | 1.56
COc1nccc(Oc2cc(C)c(N=CN(C)C(C)C)cc2C)n1 [Compound 26] | 1.4
Cc1cc(Oc2ccnc(N(C)c3ccccc3)n2)c(C)cc1N=CN1CCCCC1 [Compound 61] | 1.84
CCN(C)C=Nc1cc(C)c(Oc2ccnc(Oc3ccc(C(C)(C)C)cc3)n2)cc1C [Compound 77] | 2.65
CCN(C)C=Nc1cc(C)c(Oc2ncc(C)c(C)n2)cc1C [Compound 93] | 1.19
CCN(C)C=Nc1cc(C)c(Oc2ncc(Cl)c(N(C)CC)n2)cc1C [Compound 89, N′-[4-({5-chloro-4-[ethyl(methyl)amino]pyrimidin-2-yl}oxy)-2,5-dimethyl-phenyl]-N-ethyl-N-methylimidoformamide] | 1.82
Cc1cc(Oc2cc(Cl)ncn2)c(C)cc1N=CN(C)C(C)C [Compound 17] | 1.54
CCCN(C)C=Nc1cc(C)c(Oc2cc(N(C)CCC)ncn2)cc1C [Compound 51] | 1.79
Cc1cc(Oc2ccnc(Oc3cccc(Cl)c3)n2)c(C)cc1N=CN(C)C(C)C [Compound 68] | 2.12
CCN(C)C=Nc1cc(C)c(Oc2ccnc(Cl)n2)cc1C [Compound 23] | 1.3
Cc1cc(Oc2ccnc(Oc3ccccc3)n2)c(C)cc1N=CN(C)C [Compound 63] | 1.65
Cc1cc(Oc2nc(Cl)ncc2C)c(C)cc1N=CN(C)C(C)C [Compound 46] | 1.62
COc1ccc(Oc2nccc(Oc3cc(C)c(N=CN4CCCCC4)cc3C)n2)cc1OC [Compound 74] | 1.80
CCN(C)C=Nc1cc(C)c(Oc2ncc(Cl)cn2)cc1C [Compound 95] | 1.32
CCOc1nccc(Oc2cc(C)c(N=CN(C)C(C)C)cc2C)n1 [Compound 44] | 1.62
CCCN(C)c1nccc(Oc2cc(C)c(N=CN(C)CC)cc2C)n1 [Compound 13] | 1.25
CCN(C)C=Nc1cc(C)c(Oc2cc(Cl)ncn2)cc1C [Compound 15] | 1.4

Same assay, conditions: measured at pH = 4 (footnote a)

Structure (SMILES) | logPa
CCN(C)C=Nc1cc(C)c(Oc2cc(Oc3cccc(C(F)(F)F)c3)ncn2)cc1C [Compound 5] | 4.35^a
CCN(C)C=Nc1cc(C)c(Oc2cc(-c3cccc(C(F)(F)F)c3)ncn2)cc1C [Compound 6] | 3.19^a
CCN(C)C=Nc1cc(C)c(Oc2cc(C(C)(C)C)ncn2)cc1C [Compound 4] | 1.98^a
CCN(C)C=Nc1cc(C)c(Oc2nccc(C(F)(F)F)n2)cc1C [Compound 90] | 0.22^a
CCN(C)C=Nc1cc(C)c(Oc2cc(Oc3cccc(C(C)(C)C)c3)ncn2)cc1C [Compound 9] | 4.9^a
CCN(C)C=Nc1cc(C(C)C)c(Oc2nccc(C(F)(F)F)n2)cc1C [Compound 92] | 1.10^a
CCN(C)C=Nc1cc(C)c(Oc2cc(C(F)(F)F)ncn2)cc1C [Compound 7] | 1.85^a

Same assay, conditions: pH 2.3

Structure (SMILES) | log P (pH 2.3)
Cc1cc(Oc2ccnc(Cl)n2)c(C)cc1N [4-(2-chloro-pyrimidin-4-yloxy)-2.5-dimethyl-phenylamine] | 1.37

Same assay, conditions: reversed-phase C18 HPLC column; pH 2.3; value in preparation example text; read-out: log P (pH 2.3)

Structure (SMILES) | chromatographic logP
CCN(C)C=Nc1cc(C)c(Oc2cc(C)nc(Cl)n2)cc1C [Compound 3, N′-{4-[(2-chloro-6-methylpyrimidin-4-yl)oxy]-2,5-dimethylphenyl}-N-ethyl-N-methylimido-formamide] | 1.45
Cc1cc(Oc2cc(C)c(N)cc2C)nc(Cl)n1 [4-[(2-chloro-6-methylpyrimidin-4-yl)oxy]-2,5-dimethylaniline] | 1.62
Cc1cc(Oc2ccnc(Oc3cccc(Cl)c3C)n2)c(C)cc1N [4-[2-(3-chloro-2-methyl-phenoxy)-pyrimidin-4-yloxy]-2,5-dimethyl-phenylamine] | 2.81
CCN(C)C=Nc1cc(C)c(Oc2ncc(Cl)c(N(C)CC)n2)cc1C [Compound 89, N′-[4-({5-chloro-4-[ethyl(methyl)amino]pyrimidin-2-yl}oxy)-2,5-dimethyl-phenyl]-N-ethyl-N-methylimidoformamide] | 1.82
CCN(C)c1nc(Oc2cc(C)c(N)cc2C)ncc1Cl [2-(4-amino-2,5-dimethylphenoxy)-5-chloro-N-ethyl-N-methylpyrimidin-4-amine] | 1.88
